Patent US8318184B2, “MGLU2 agonists” (Eli Lilly and Company, priority 2009, dated 2012)

Columns and labels:
human mGlu2 receptor = biological target: T1, human mGlu2 receptor (Homo sapiens, UniProt Q14416); assay: Human mGlu2 Agonist FLIPR Assay; format: cell-based; details: hmGlu2 FLIPR assay, AV-12 cells, relative EC50
T1 construct: expressed in transfected cells; co-transfected with rat EAAT1 and Galpha15
Description: AV-12 cell lines, derived from Syrian Hamster fibroblasts and stably expressing the human mGlu2 receptor and co-transfected with the rat glutamate transporter EAAT 1 (Excitatory Amino Acid Transporter 1) and the Gα15 subunit, are used for these studies. The expression of Gα15 allows Gi-coupled receptors to signal through the phospholipase C pathway, resulting in the ability to measure receptor activation by a fluorometric calcium response assay. […]
Intracellular calcium levels are monitored before and after the addition of compounds using a Fluorometric Imaging Plate Reader (FLIPR, Molecular Devices). […] Results are analyzed using Prism v4.03 (GraphPad Software). […] After taking an initial 5-sec fluorescent read on the FLIPR instrument, a compound of the present invention is added to the cell plate (50 μL per well). […] The compound effect is measured as maximal minus minimal peak heights in relative fluorescent units (RFUs) corrected for basal fluorescence measured in the absence of glutamate. […] Agonist effects are quantified as percent stimulation induced by compound alone relative to the maximal glutamate response. All data are calculated as relative EC50 values using a four-parameter logistic curve fitting program (ActivityBase v5.3.1.22).

ICR(CD-1) mice = assay: Reversal of Phencyclidine (PCP)-Induced Hyperlocomotor Activity in Mice; format: in vivo, mouse; details: i.p.
Description: This assay for Reversal of Phencyclidine (PCP)-Induced Hyperlocomotor Activity in Mice is run substantially as the Reversal of Phencyclidine (PCP)-Induced Hyperlocomotor Activity in Rats assay provided above, using mice instead of rats and with the changes noted below.
Motor activity is monitored by placing individual male, ICR(CD-1), (Harlan, Indianapolis, Ind.) mice in transparent, plastic shoe-box cages of the dimensions 45×25×20 cm, with 0.5 cm depth of wood chips as bedding, and plastic lid on top of the cage. Motor monitors (Kinder Scientific) consist of a rectangular rack of 12 photobeams arranged in an 8×4 formation, (or a high density grouping of 22 in a 15×7 pattern) at a height of 2.5 cm. The shoe box cage is placed inside of these racks, with the racks on a 3 foot high tabletop in an isolated room. A compound of the present invention is dosed (intraperitoneal route, non-prodrug) usually within a range of 0.3-30 mg/kg; though higher doses may be used, 30 minutes prior to a 7.5 mg/kg challenge dose of phencyclidine (PCP). On the test day, mice are placed in the test cage and allowed to acclimate for 45 minutes prior to PCP challenge; mice are monitored for an additional 60 minutes following PCP administration.
Power analyses have determined that 7-8 mice per group are needed to have appropriate statistical power for detecting treatment differences (power=0.8).

[1] = both, human, pH 7.4
Experimental: Liver S9 fractions are obtained from Xenotech LLC (Lenexa, Mo.). The lot is from a pool of two donors. The liver S9 fraction is prepared and diluted using a homogenization buffer consisting of 50 mM Tris, pH 7.4 at 4° C. and 150 mM potassium chloride without EDTA. Prodrug compounds are incubated in the liver homogenate for 2 hours at 37° C., after which the concentration of compound is determined by LC/MS/MS. Hydrolysis of Clopidogrel to Clopidogrel Carboxylic Acid is utilized as an assay positive control.
A mobile phase gradient is utilized starting mobile phase ratio A/B of 99.9/0.1 and finishing at 1/99.

T1 sequence (Q14416 19-872): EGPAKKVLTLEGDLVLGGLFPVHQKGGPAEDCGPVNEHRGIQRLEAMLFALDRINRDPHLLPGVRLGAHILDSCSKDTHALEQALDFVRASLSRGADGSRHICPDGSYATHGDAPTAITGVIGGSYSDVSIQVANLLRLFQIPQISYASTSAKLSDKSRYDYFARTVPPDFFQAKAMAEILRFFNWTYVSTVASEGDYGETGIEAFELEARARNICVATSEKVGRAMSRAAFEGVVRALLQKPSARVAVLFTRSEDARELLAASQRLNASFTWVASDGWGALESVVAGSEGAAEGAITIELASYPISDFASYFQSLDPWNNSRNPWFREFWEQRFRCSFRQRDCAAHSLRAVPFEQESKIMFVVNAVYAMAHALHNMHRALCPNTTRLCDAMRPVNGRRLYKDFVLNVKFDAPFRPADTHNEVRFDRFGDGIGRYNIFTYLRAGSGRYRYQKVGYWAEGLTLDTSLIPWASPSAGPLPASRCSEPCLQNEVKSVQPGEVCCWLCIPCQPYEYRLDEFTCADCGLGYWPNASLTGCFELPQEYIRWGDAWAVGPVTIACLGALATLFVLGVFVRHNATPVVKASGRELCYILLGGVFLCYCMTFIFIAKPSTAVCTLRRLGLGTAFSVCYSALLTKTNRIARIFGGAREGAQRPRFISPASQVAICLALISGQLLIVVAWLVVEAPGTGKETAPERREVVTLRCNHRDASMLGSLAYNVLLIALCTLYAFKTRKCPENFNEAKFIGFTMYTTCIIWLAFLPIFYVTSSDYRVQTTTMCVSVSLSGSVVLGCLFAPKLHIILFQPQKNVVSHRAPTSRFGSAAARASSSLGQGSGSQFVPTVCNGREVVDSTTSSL

EC50 (human mGlu2 receptor)	Hydrolysis of Clopidogrel to Clopidogrel Carboxylic Acid [1]	SMILES	inhibition of PCP evoked ambulations (ICR(CD-1) mice; multiple dose experiment, 10 mg/kg dose)	inhibition of PCP evoked ambulations (ICR(CD-1) mice; multiple dose experiment, 100 mg/kg dose)	inhibition of PCP evoked ambulations (ICR(CD-1) mice; single dose experiment of 10 mg/kg)
> 25 µM		N[C@]1(C(=O)O)C[C@H](Sc2ccccc2)[C@@H]2[C@@H](C(=O)O)[C@@H]21 (racemic) [1SR,2RS,4SR,5SR,6SR-2-amino-4-(phenylthio)-bicyclo[3.1.0]hexane-2,6-dicarboxylic acid]	5±10%	19±8%	18±11%
	73.0%	COC(=O)[C@H](c1ccccc1Cl)N1CCc2sccc2C1 [Clopidogrel]			
